pEC50, pKi: −log10 of the molar value.
Tests used:
[1] = tested on: HIV-1 laboratory viral strain NL4.3 (wild type virus); test: Anti-viral assay in vitro (MTT, infected MT-4 cells); type: cell-based; conditions: Human immunodeficiency virus 1, MT4, 144 h; MT-4 cells infected with NL4.3, six days, MTT assay; read-out: EC50
Procedure: Anti-viral and Cytotoxicity Assays In Vitro
To evaluate the EC50 of our compounds, various drug concentrations are incubated with the infected cell for six days and then the metabolic activity of the cells is monitored by the MTT assay. (See A. J. Japour et al, Antimicrobial Agents and Chemotherapy, 37, 1095-1101, 1993 and R. Pauwels et al. Journal of Virological Methods, 20, 309-321, 1988)
We use the laboratory viral strain NL4.3 as wild type virus and the cell line used is MT-4 which is a T-cell line highly sensitive to HIV-1. We also use some WT clinical strains. To address the resistance issue we assay the inhibitors with NL4.3 mutants which are designed to be resistant to specific commercially,available inhibitors

[2] = target: HIV protease (Human immunodeficiency virus type 1 group M subtype B, UniProt P04585); test: biochemical
From the text: Enzymatic Assay for Determining the Inhibition Constant (Ki) of Synthetic Compounds Targeting the HIV Protease
This is a fluorometric assay based on the cleavage by protease of a substrate carrying a donor group (EDANS) and an acceptor group (DABCYL) on each side of the cleavage site, interacting together through fluorescence resonance energy transfer (FRET) as described by Matayoshi et al. (Science 247:954-954, 1990).
After calculation of Vo and Vi, the inhibition constant (Ki) of the compound is determined using the equation of Henderson: [formula]
where Vo=the enzyme's initial velocity
Vi=the enzyme velocity in the presence of the inhibitory compound,
[I]=inhibitor concentration, [S]=substrate concentration,
Km=Michaelis-Menten constant and Kiapp=apparent Ki
Graphs are traced and the Ki determined using GraphPad Prism software v.

| Compound | pEC50 [1] | pKi [2] |
| --- | --- | --- |
| CC(C)CN([C@H](CO)CCCCNC(=O)[C@H](Cc1ccccc1-c1ccccc1)NC(=O)N1CCOCC1)S(=O)(=O)c1ccc(N)cc1 [Example 43, (1S,5S)-Morpholine-4-carboxylic Acid (1-{5-[(4-Amino-benzenesulfonyl)-isobutyl-amino]-6-hydroxy-hexylcarbamoyl}-2-biphenyl-2-yl-ethyl)-amide] | 6.16 | 9.22 |
| CC(=O)N[C@H](C(=O)NCCCC[C@@H](CO)N(CC(C)C)S(=O)(=O)c1ccc(N)cc1)C(c1ccccc1)c1ccccc1 [Example 71, (2S,5S)-2-Acetylamino-N-{5-[(4-amino-benzenesulfonyl)-isobutyl-amino]-6-hydroxy-hexyl}-3,3-diphenyl-propionamide] | 7.18 | 8.82 |
| CC(C)CN([C@H](CO)CCCCNC(=O)[C@H](Cc1ccc2ccccc2c1)NC(=O)N(C)C)S(=O)(=O)c1ccc(N)cc1 [Example 41, (2S,5S)-N-{5-[(4-Amino-benzenesulfonyl)-isobutyl-amino]-6-hydroxy-hexyl}-2-(3,3-dimethyl-ureido)-3-naphthalen-2-yl-propionamide] | 7.10 | 8.96 |
| COC(=O)N[C@@H](Cc1ccccc1-c1ccc(OC)cc1)C(=O)NCCCC[C@@H](CO)N(CC(C)C)S(=O)(=O)c1ccc(N)cc1 [Example 31, (1S,5S)-[1-{5-[(4-Amino-benzenesulfonyl)-isobutyl-amino]-6-hydroxy-hexylcarbamoyl}-2-(4′-methoxy-biphenyl-2-yl)-ethyl]-carbamic Acid Methyl Ester] | 6.93 | 9.18 |
| CC(C)CN(C(CO)CCCCNC(=O)C(Cc1ccc2ccccc2c1)NC(=O)C1CCOC1)S(=O)(=O)c1ccc(N)cc1 [Example 37, (1S,3R,S,5S)-Tetrahydro-furan-3-carboxylic Acid (1-{5-[(4-Amino-benzenesulfonyl)-isobutyl-amino]-6-hydroxy-hexylcarbamoyl}-2-naphthalen-2-yl-ethyl)-amide] | 6.49 | 8.57 |
| CC(C)CN([C@H](CO)CCCCNC(=O)[C@H](Cc1cccc2ccccc12)NC(=O)N1CCOCC1)S(=O)(=O)c1ccc2c(c1)OCO2 [Example 66, (1S,5S)-Morpholine-4-carboxylic Acid (1-{5-[(Benzo[1,3]dioxole-5-sulfonyl)-isobutyl-amino]-6-hydroxy-hexylcarbamoyl}-2-naphthalen-1-yl-ethyl)-amide] | 6.39 | 8.96 |
| CC(C)CN([C@H](CO)CCCCNC(=O)[C@@H](NC(=O)C1CCCCC1)C(c1ccccc1)c1ccccc1)S(=O)(=O)c1ccc(N)cc1 [Example 76, (1S,5S)-Cyclohexanecarboxylic Acid (1-{5-[(4-Amino-benzenesulfonyl)-isobutyl-amino]-6-hydroxy-hexylcarbamoyl}-2,2-diphenyl-ethyl)-amide] | 7.03 | > 8.42 |
| CC(C)CN([C@H](CO)CCCCNC(=O)[C@H](Cc1cccc2ccccc12)NC(=O)N1CCOCC1)S(=O)(=O)c1ccc(F)c(N)c1 [Example 53, (1S,5S)-Morpholine-4-carboxylic Acid (1-{5-[(3-Amino-4-fluoro-benzenesulfonyl)-isobutyl-amino]-6-hydroxy-hexylcarbamoyl}-2-naphthalen-1-yl-ethyl)-amide] | 7.40 | 9.20 |
| COC(=O)N[C@@H](Cc1ccc2ccccc2c1)C(=O)NCCC[C@@H](CO)N(CC(C)C)S(=O)(=O)c1ccc(N)cc1 [Example 1, (1S,4S)-(1-{4-[(4-Amino-benzenesulfonyl)-isobutyl-amino]-5-hydroxy-pentylcarbamoyl}-2-naphthalen-2-yl-ethyl)-carbamic Acid Methyl Ester] | 5.83 | 8.14 |
| CC(C)CN([C@H](CO)CCCCNC(=O)[C@@H](NC(=O)N1CCOCC1)C(c1ccccc1)c1ccccc1)S(=O)(=O)c1ccc(N)cc1 [Example 40, (1S,5S)-Morpholine-4-carboxylic Acid (1-{5-[(4-Amino-benzenesulfonyl)-isobutyl-amino]-6-hydroxy-hexylcarbamoyl}-2,2-diphenyl-ethyl)-amide] | 7.11 | 9.29 |
| COc1ccc(-c2ccccc2C[C@H](NC(=O)N2CCOCC2)C(=O)NCCCC[C@@H](CO)N(CC(C)C)S(=O)(=O)c2ccc(N)cc2)cc1 [Example 38, (1S,5S)-Morpholine-4-carboxylic Acid [1-{5-[(4-Amino-benzenesulfonyl)-isobutyl-amino]-6-hydroxy-hexylcarbamoyl}-2-(4′-methoxy-biphenyl-2-yl)-ethyl]-amide] | 7.03 | 9.27 |
| CC(C)CN([C@H](CO)CCCCNC(=O)[C@@H](NC(=O)c1cccnc1)C(c1ccccc1)c1ccccc1)S(=O)(=O)c1ccc(N)cc1 [Example 73, (1S,5S)-N-(1-{5-[(4-Amino-benzenesulfonyl)-isobutyl-amino]-6-hydroxy-hexylcarbamoyl}-2,2-diphenyl-ethyl)-nicotinamide] | 7.41 | 9.17 |
| CC(C)CN(C(CO)CCCCNC(=O)C(NC(=O)C1CCOC1)C(c1ccccc1)c1ccccc1)S(=O)(=O)c1ccc(N)cc1 [Example 77, (1S,3R,S,5S)-Tetrahydro-furan-3-carboxylic Acid (1-{5-[(4-Amino-benzenesulfonyl)-isobutyl-amino]-6-hydroxy-hexylcarbamoyl}-2,2-diphenyl-ethyl)-amide] | 7.17 | 9.24 |
| COC(=O)N[C@H](C(=O)NCCCC[C@@H](CO)N(CC(C)C)S(=O)(=O)c1ccc(F)cc1F)C(c1ccccc1)c1ccccc1 [Example 80, (1S,5S)-(1-{5-[(2,4-Difluoro-benzenesulfonyl)-isobutyl-amino]-6-hydroxy-hexylcarbamoyl}-2,2-diphenyl-ethyl)-carbamic Acid Methyl Ester] | 7.32 | > 8.42 |
| CC(C)CN([C@H](CO)CCCCNC(=O)[C@@H](NC(=O)C1CC1)C(c1ccccc1)c1ccccc1)S(=O)(=O)c1ccc(N)cc1 [Example 75, (1S,5S)-Cyclopropanecarboxylic Acid (1-{5-[(4-Amino-benzenesulfonyl)-isobutyl-amino]-6-hydroxy-hexylcarbamoyl}-2,2-diphenyl-ethyl)-amide] | 7.60 | > 8.42 |
| COC(=O)N[C@H](C(=O)NCCCC[C@@H](CO)N(CC(C)C)S(=O)(=O)c1ccc(N)c(Cl)c1)C(c1ccccc1)c1ccccc1 [Example 50, (1S,5S)-(1-{5-[(4-Amino-3-chloro-benzenesulfonyl)-isobutyl-amino]-6-hydroxy-hexylcarbamoyl}-2,2-diphenyl-ethyl)-carbamic Acid Methyl Ester] | 7.02 | 9.11 |
| CC(C)CN([C@H](CO)CCCCNC(=O)[C@@H](NC(=O)c1ccncc1)C(c1ccccc1)c1ccccc1)S(=O)(=O)c1ccc(N)cc1 [Example 74, (1S,5S)-N-(1-{5-[(4-Amino-benzenesulfonyl)-isobutyl-amino]-6-hydroxy-hexylcarbamoyl}-2,2-diphenyl-ethyl)-isonicotinamide] | 7.49 | 9.19 |
| CC(C)CN([C@H](CO)CCCCNC(=O)[C@H](Cc1ccc2ccccc2c1)NC(=O)c1ccncc1)S(=O)(=O)c1ccc(N)cc1 [Example 55, (1S,5S)-N-(1-{5-[(4-Amino-benzenesulfonyl)-isobutyl-amino]-6-hydroxy-hexylcarbamoyl}-2-naphthalen-2-yl-ethyl)-isonicotinamide] | 6.96 | 8.89 |
| COC(=O)N[C@@H](Cc1cccc2ccccc12)C(=O)NCCC[C@@H](CO)N(CC(C)C)S(=O)(=O)c1ccc(N)cc1 [Example 2, (1S,4S)-(1-{4-[(4-Amino-benzenesulfonyl)-isobutyl-amino]-5-hydroxy-pentylcarbamoyl}-2-naphthalen-1-yl-ethyl)-carbamic Acid Methyl Ester] | 6.17 | 8.55 |
| CC(C)CN([C@H](CO)CCCCNC(=O)[C@H](Cc1ccc2ccccc2c1)NC(=O)C1CC1)S(=O)(=O)c1ccc(N)cc1 [Example 47, (1S,5S)-Cyclopropanecarboxylic Acid (1-{5-[(4-Amino-benzenesulfonyl)-isobutyl-amino]-6-hydroxy-hexylcarbamoyl}-2-naphthalen-2-yl-ethyl)-amide] | 6.49 | 8.85 |
| COC(=O)N[C@H](C(=O)NCCCC[C@@H](CO)N(CC(C)C)S(=O)(=O)c1ccc2c(c1)OCO2)C(c1ccccc1)c1ccccc1 [Example 67, (1S,5S)-(1-{5-[(Benzo[1,3]dioxole-5-sulfonyl)-isobutyl-amino]-6-hydroxy-hexylcarbamoyl}-2,2-diphenyl-ethyl)-carbamic Acid Methyl Ester] | 6.84 | – |
| COC(=O)N[C@@H](Cc1ccccc1-c1cccc(F)c1)C(=O)NCCCC[C@@H](CO)N(CC(C)C)S(=O)(=O)c1ccc(N)cc1 [Example 52, (1S,5S)-[1-{5-[(4-Amino-benzenesulfonyl)-isobutyl-amino]-6-hydroxy-hexylcarbamoyl}-2-(3′-fluoro-biphenyl-2-yl)-ethyl]-carbamic Acid Methyl Ester] | 6.82 | 9.15 |
| CC(C)CN([C@H](CO)CCCNC(=O)[C@H](Cc1cccc2ccccc12)NC(=O)CC(F)(F)F)S(=O)(=O)c1ccc(N)cc1 [Example 12, (1S,4S)-N-(1-{4-[(4-Amino-benzenesulfonyl)-isobutyl-amino]-5-hydroxy-pentylcarbamoyl}-2-naphthalen-1-yl-ethyl)-3,3,3-trifluoro-propionamide] | 6.13 | – |
| CC(C)CN([C@H](CO)CCCCNC(=O)[C@H](Cc1ccc2ccccc2c1)NC(=O)CC(F)(F)F)S(=O)(=O)c1ccc(N)cc1 [Example 61, (1S,5S)-N-(1-{5-[(4-Amino-benzenesulfonyl)-isobutyl-amino]-6-hydroxy-hexylcarbamoyl}-2-naphthalen-2-yl-ethyl)-3,3,3-trifluoro-propionamide] | 6.79 | – |

Source: patent US6632816B1, “Aromatic derivatives as HIV aspartyl protease inhibitors” (Pharmacor Inc., priority 2002, dated 2003)
